How the values were obtained:
Assay type in all cases: cell-based
[1] = molecular target: T1, hERG channels (Homo sapiens, UniProt Q12809); test: hERG screening assay (automated patch clamp); conditions: CHO crelox hERG cell line, whole-cell patch clamp SynchroPatch 384, 35-37° C.
T1 construct: cryopreserved at Evotec (Germany) ATCC PTA-6812; host or cells: CHO (Chinese hamster) crelox hERG cell line
Source text: hERG Screening Assay The CHO crelox hERG cell line (ATCC reference Nr. PTA-6812, female Chinese hamster cells) was generated and validated at Roche. Ready-to-use frozen instant CHO-hERG cells were cryopreserved at Evotec (Germany) and used directly in the experiments. The extracellular solution contains (in mM): NaCl 150; KCl 4; CaCl2 1; MgCl2 1; HEPES 10; pH 7.2-7.4 with NaOH, osmolarity 290-330 mOsm. The internal solution contains (in mM): KCl, 10; KF, 100; NaCl, 10; HEPES, 10; EGTA, 20; pH=7.0-7.4 with KOH, osmolarity 260-300 mOsm. The effects of a compound on hERG K+-currents parameters will be evaluated at 2 concentrations in at least 4 cells. The hERG test is performed using automated patch clamp system SynchroPatch® 384 (Nanion Technologies GmbH, Germany). K+ currents are measured with the patch-voltage-clamp technique in the whole-cell configuration at 35-37° C. Cells were held at a resting voltage of −80 mV and they were stimulated by a voltage pattern shown in FIG. 1 to activate hERG channels and conduct outward IKhERG current, at a stimulation frequency of 0.1 Hz (6 bpm) The amplitudes of IKhERG were recorded in each concentration of drug and they were compared to the vehicle control values (taken as 100%) to define fractional blocks. The concentration-response data were fitted with the following relationship: where C is the concentration, • IC50 is the concentration producing 50% block • h is the Hill coefficient. Concentration-response curves were fitted by non-linear regression analysis using EworkBook suite (ID Business Solutions Ltd, UK). Data fit was done with the 4 Parameter Logistic Model (fit=(A+(B/(1+((x/C)^D)))), where A=0 and B=100).

[2] = molecular target: T2, NLRP3 (Homo sapiens, UniProt Q96P20); test: THP-1 cells pyroptosis assay; parameters: Seed THP-1 cells (25,000 cells/well) containing 1.0 μg/ml LPS; host or cells: THP-1 cells, LPS-primed, nigericin-stimulated; conditions: 1.0 μg/ml LPS, nigericin 5 μM, resazurin readout
Method: The cells were routinely passaged and grown to confluency (˜10^6 cells/ml). On the day of the experiment, THP-1 cells were harvested and resuspended into RPMI medium (without FBS). […] To this diluted cell solution was added LPS (Sigma #L4524) to give a 1 μg/ml Final Assay Concentration (FAC). 40 μl of the final preparation was aliquoted into each well of a 96-well plate. The plate thus prepared was used for compound screening.
The following method step-by-step assay was followed for compound screening. • 1. […] Incubate for 3 hrs at 37° C., 5% CO2 • 4. Add 5 μl nigericin (Sigma #N7143) (FAC 5 μM) to all wells • 5. Incubate for 1 hr at 37° C., 5% CO2 • 6. At the end of the incubation period, spin plates at 300×g for 3 mins and remove supernatant • 7. Then add 50 μl of resazurin (Sigma #R7017) (FAC 100 μM resazurin in RPMI medium without FBS) and incubate plates for a further 1-2 hrs at 37° C. and 5% CO2 • 8. […] IC50 data is fitted to a non-linear regression equation (log inhibitor vs response-variable slope 4-parameters)

[3] = molecular target: T2, NLRP3; test: Human whole blood IL-1β release assay; parameters: Human whole blood in Li-heparin tubes was obtained from healthy donors; from tissue; host or cells: human whole blood from healthy donors, LPS-primed, nigericin-stimulated; conditions: 1 μg/ml LPS, nigericin 10 μM, IL-1β by AlphaLisa
Method: For systemic delivery, the ability to inhibit NLRP3 when the compounds are present within the bloodstream is of great importance. For this reason, the NLRP3 inhibitory activity of a number of compounds in human whole blood was investigated in accordance with the following protocol.
Human whole blood in Li-heparin tubes was obtained from healthy donors from a volunteer donor panel. • 1. […] Incubate for 3 hrs at 37° C., 5% CO2 • 4. Add 10 μl nigericin (Sigma #N7143) (10 μM FAC) to all wells • 5. Incubate for 1 hr at 37° C., 5% CO2 • 6. At the end of the incubation period, spin plates at 300×g for 5 mins to pellet cells and remove 20 μl of supernatant and add to 96-well v-bottom plates for IL-1β analysis (note: these plates containing the supernatants can be stored at −80° C. to be analysed at a later date) • 7. IL-1β was measured according to the manufacturer protocol (Perkin Elmer-AlphaLisa IL-1 Kit AL220F-5000) • 8. IC50 data is fitted to a non-linear regression equation (log inhibitor vs response-variable slope 4-parameters)

T1 sequence (Q12809 whole entry): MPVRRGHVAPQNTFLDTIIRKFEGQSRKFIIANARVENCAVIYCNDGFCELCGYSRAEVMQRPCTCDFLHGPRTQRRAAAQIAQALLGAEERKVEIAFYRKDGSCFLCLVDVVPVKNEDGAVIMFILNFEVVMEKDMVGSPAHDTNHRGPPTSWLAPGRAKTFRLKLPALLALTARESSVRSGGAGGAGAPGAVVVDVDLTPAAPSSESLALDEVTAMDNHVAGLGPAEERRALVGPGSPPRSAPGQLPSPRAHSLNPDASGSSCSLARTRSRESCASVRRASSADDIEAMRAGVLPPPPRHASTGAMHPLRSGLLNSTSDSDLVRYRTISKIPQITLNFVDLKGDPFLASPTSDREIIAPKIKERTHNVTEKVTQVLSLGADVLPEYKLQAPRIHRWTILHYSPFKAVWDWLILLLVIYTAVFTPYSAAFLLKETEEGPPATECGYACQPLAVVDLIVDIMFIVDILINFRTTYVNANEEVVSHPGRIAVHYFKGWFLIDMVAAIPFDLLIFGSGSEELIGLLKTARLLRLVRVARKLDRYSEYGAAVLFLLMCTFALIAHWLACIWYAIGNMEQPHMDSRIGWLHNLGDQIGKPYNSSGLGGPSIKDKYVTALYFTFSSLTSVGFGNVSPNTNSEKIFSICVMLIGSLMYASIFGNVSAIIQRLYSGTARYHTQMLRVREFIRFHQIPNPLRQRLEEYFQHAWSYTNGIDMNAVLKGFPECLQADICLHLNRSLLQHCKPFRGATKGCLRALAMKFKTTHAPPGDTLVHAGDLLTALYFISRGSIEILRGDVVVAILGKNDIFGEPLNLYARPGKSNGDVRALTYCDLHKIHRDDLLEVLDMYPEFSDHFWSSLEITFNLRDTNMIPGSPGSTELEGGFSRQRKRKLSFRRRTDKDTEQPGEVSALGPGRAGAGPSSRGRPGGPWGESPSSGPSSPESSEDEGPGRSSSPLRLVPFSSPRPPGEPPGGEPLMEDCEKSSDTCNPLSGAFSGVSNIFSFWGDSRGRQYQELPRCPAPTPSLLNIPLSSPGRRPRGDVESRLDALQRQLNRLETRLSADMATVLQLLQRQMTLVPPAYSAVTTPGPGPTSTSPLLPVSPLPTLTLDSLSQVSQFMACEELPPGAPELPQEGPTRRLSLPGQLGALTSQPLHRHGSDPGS
T2 sequence (Q96P20 whole entry): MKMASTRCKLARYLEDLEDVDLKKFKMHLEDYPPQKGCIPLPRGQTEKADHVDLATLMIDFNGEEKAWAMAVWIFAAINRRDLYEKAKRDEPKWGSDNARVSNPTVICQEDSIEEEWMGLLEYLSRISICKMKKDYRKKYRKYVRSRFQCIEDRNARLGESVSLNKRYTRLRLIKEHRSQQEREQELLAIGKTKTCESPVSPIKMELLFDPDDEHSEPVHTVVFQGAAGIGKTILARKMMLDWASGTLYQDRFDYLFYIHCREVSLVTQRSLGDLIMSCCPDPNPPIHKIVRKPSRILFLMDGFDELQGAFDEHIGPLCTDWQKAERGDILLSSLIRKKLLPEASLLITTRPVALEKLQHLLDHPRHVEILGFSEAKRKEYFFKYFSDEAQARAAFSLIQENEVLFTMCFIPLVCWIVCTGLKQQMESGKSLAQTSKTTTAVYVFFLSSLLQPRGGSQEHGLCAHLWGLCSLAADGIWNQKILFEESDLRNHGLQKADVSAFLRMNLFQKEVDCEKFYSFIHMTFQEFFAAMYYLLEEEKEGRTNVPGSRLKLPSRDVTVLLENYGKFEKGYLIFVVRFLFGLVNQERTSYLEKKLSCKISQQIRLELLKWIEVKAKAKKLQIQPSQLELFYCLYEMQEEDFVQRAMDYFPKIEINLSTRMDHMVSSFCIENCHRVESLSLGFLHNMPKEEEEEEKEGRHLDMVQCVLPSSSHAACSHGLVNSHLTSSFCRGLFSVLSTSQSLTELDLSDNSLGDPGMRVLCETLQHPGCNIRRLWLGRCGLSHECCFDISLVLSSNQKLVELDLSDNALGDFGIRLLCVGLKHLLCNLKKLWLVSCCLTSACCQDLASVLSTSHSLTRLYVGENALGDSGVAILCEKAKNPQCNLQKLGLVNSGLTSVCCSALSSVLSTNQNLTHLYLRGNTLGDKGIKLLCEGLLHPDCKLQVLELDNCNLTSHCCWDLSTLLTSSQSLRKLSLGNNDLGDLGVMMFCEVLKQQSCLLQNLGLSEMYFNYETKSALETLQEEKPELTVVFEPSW

Row | Structure (SMILES) | IC50 [1] [nM] | IC50 [2] [nM] | IC50 [3] [nM]
1 | CCN1CCCC(Nc2nnc(-c3ccc(C(F)(F)F)cc3O)n(C)c2=O)C1 (stereo not drawn) [Example 1, 6-((1-ethylpiperidin-3-yl)amino)-3-(2-hydroxy-4-(trifluoromethyl)phenyl)-4-methyl-1,2,4-triazin-5(4H)-one] | > 20000 | 44 | 35
2 | CCN1CCC[C@@H](Nc2nnc(-c3ccc4c(c3O)CCO4)n(C)c2=O)C1 [Example 2, 6-[[(3R)-1-Ethyl-3-piperidyl]amino]-3-(4-hydroxy-2,3-dihydrobenzofuran-5-yl)-4-methyl-1,2,4-triazin-5-one] | > 20000 | – | –
3 | Cn1c(-c2ccc(C(F)(F)F)cc2O)nnc(N[C@@H]2CCCN(C3CC3)C2)c1=O [Example 10, (R)-6-((1-Cyclopropylpiperidin-3-yl)amino)-3-(2-hydroxy-4-(trifluoromethyl)phenyl)-4-methyl-1,2,4-triazin-5(4H)-one] | > 20000 | 39 | 170
4 | CCN1CCC[C@@H](Nc2nnc(-c3ccc(C(F)(F)F)cc3O)n(C)c2=O)C1 [Example 19, 6-[[(3R)-1-Ethyl-3-piperidyl]amino]-3-[2-hydroxy-4-(trifluoromethyl)phenyl]-4-methyl-1,2,4-triazin-5-one;2,2,2-trifluoroacetic Acid] | > 20000 | 10 | 9.5
5 | CCN1CCC[C@@H](Nc2nnc(-c3ccc(F)cc3O)n(C)c2=O)C1 [Example 21, 6-[[(3R)-1-Ethyl-3-piperidyl]amino]-3-(4-fluoro-2-hydroxy-phenyl)-4-methyl-1,2,4-triazin-5-one] | > 20000 | 58 | 28
6 | CCN1CCC[C@@H](Nc2nnc(-c3ccc(C(C)(F)F)cc3O)n(C)c2=O)C1 [Example 24, 3-[4-(1,1-Difluoroethyl)-2-hydroxy-phenyl]-6-[[(3R)-1-ethyl-3-piperidyl]amino]-4-methyl-1,2,4-triazin-5-one] | – | 106 | 108
7 | CCN1CCC[C@@H](Nc2nnc(-c3ccc(C(C)=O)cc3O)n(C)c2=O)C1 [Example 25, 3-(4-Acetyl-2-hydroxy-phenyl)-6-[[(3R)-1-ethyl-3-piperidyl]amino]-4-methyl-1,2,4-triazin-5-one] | – | 9.3 | 15
8 | CCN1CCC[C@@H](Nc2nnc(-c3ccc(OC(F)(F)F)cc3O)n(C)c2=O)C1 [Example 27, 6-[[(3R)-1-Ethyl-3-piperidyl]amino]-3-[2-hydroxy-4-(trifluoromethoxy)phenyl]-4-methyl-1,2,4-triazin-5-one] | > 20000 | 12 | 14
9 | CCN1CCC[C@@H](Nc2nnc(-c3c(C)cc(C(F)(F)F)cc3O)n(C)c2=O)C1 [Example 28, 6-[[(3R)-1-Ethyl-3-piperidyl]amino]-3-[2-hydroxy-6-methyl-4-(trifluoromethyl)phenyl]-4-methyl-1,2,4-triazin-5-one] | > 20000 | 13 | 31
10 | CCN1CCC[C@@H](Nc2nnc(-c3ccc(Cl)cc3O)n(C)c2=O)C1 [Example 33, 3-(4-Chloro-2-hydroxy-phenyl)-6-[[(3R)-1-ethyl-3-piperidyl]amino]-4-methyl-1,2,4-triazin-5-one] | > 20000 | – | –
11 | CN1CCC[C@@H](Nc2nnc(-c3ccc(OC(F)(F)F)cc3O)n(C)c2=O)C1 [Example 34, 3-[2-Hydroxy-4-(trifluoromethoxy)phenyl]-4-methyl-6-[[(3R)-1-methyl-3-piperidyl]amino]-1,2,4-triazin-5-one] | – | 13.1 | 35.2
12 | CCN1CCCC(Nc2cc(C)c(-c3ccc(C(F)(F)F)cc3O)nn2)C1 (stereo not drawn) [RE-A, 2-[6-[(1-ethyl-3-piperidyl)amino]-4-methyl-pyridazin-3-yl]-5-(trifluoromethyl)phenol, reference compound] | 1200 | – | –

Source: patent US20240208928A1, “NOVEL COMPOUNDS” (Hoffmann-La Roche Inc., priority 2021, published 2024)
